Measurements as given in patent US8852554B2, “Radiolabelled PDE10 ligands” (Janssen Pharmaceutica NV, priority 2009, dated 2014).
Where a name gives a salt, the structure may show the parent alone.

What was measured:
[1] = target: T1, Rat recombinant PDE10A (rPDE10A) (Rattus norvegicus, UniProt Q9QYJ6); assay: rat PDE10A2-cAMP inhibition, in vitro SPA assay; type: biochemical; settings: 60 nM cAMP substrate
T1 construct: made in house; host or cells: Sf9 insect cells (baculovirus)
T1 sequence (Q9QYJ6 1-794): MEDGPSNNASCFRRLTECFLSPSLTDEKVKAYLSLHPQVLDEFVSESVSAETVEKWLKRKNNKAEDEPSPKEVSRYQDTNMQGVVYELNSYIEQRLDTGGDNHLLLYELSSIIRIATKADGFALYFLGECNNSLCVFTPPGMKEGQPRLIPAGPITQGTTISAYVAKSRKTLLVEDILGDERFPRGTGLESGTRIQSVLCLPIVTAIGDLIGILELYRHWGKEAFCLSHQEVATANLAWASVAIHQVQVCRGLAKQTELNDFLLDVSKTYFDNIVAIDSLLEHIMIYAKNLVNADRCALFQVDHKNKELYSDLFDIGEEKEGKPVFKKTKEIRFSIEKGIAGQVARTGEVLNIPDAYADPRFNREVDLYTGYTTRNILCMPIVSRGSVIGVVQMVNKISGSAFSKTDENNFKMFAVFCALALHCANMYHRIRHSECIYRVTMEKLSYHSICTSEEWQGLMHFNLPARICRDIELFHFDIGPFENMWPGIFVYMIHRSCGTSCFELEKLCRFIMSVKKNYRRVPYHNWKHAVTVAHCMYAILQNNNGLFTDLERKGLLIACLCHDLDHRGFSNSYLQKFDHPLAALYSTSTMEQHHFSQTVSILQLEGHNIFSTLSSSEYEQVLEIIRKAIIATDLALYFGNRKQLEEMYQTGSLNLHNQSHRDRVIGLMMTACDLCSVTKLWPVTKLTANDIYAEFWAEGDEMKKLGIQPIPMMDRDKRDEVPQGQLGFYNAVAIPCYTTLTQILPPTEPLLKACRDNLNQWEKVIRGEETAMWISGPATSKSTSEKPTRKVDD
Procedure: Rat recombinant PDE10A (rPDE10A) was expressed in Sf9 cells using a recombinant rPDE10A baculovirus construct. Cells were harvested after 48 h of infection and the rPDE10A protein was purified by metal chelate chromatography on Ni-sepharose 6FF. Tested compounds were dissolved and diluted in 100% DMSO to a concentration 100 fold of the final concentration in the assay. Compound dilutions (0.4 μl) were added in 384 well plates to 20 μl of incubation buffer (50 mM Tris pH 7.8, 8.3 mM MgCl2, 1.7 mM EGTA). 10 μl of rPDE10A enzyme in incubation buffer was added and the reaction was started by addition of 10 μl substrate to a final concentration of 60 nM cAMP and 0.008 μCi 3H-cAMP. The reaction was incubated for 60 minutes at room temperature. […] After sedimentation of the beads during 30 minutes, the radioactivity was measured in a Perkin Elmer Topcount scintillation counter and results were expressed as cpm. For blanc values the enzyme was omitted from the reaction and replaced by incubation buffer. Control values were obtained by addition of a final concentration of 1% DMSO instead of compound.

PDE10A = target: T2, PDE10A (Rattus norvegicus, UniProt Q9QYJ6); assay: MicroPET imaging studies; type: in vivo, male Wistar rats; settings: simplified reference tissue model, cerebellum as reference
T2 construct: from tissue; host or cells: brain (striatum) of living male Wistar rats, in vivo microPET
T2 sequence (Q9QYJ6 1-794): T1 sequence (Q9QYJ6 1-794)
Procedure: Imaging experiments were performed on a Focus™ 220 microPET scanner (Concorde Microsystems, Knoxville, Tenn., USA) using male Wistar rats with body weight varying between 300 and 600 g. […] Dynamic scans of 120 min were acquired in list mode. After reconstruction of the images, they were semi-automatically co-registered with a [^11C]raclopride template of the rat brain, and volumes of interest (VOIs) were generated for different anatomical brain structures (striatum, cerebral cortex and cerebellum) from which time-activity curves (TAC) were constructed for each individual image, using PMOD software (PMOD Technologies Ltd.). Normalization for body weight of the animal and injected dose was done. The radioactivity concentration in the different brain regions was expressed as SUV (standardized uptake value) as a function of time in seconds post injection of the radiotracer. The parametric binding potential (BP) values were calculated for all acquired images by using a simplified reference tissue model where the TAC of the cerebellum was used as input TAC for non-specific binding, using the same software (PMOD).
The radioactivity concentration in the different brain regions was expressed as SUV value as a function of time p.i. of the radiotracer by normalization for body weight of the animal and injected dose.

Compound | melting point [°C] | IC50 [1] [nM] | BP (binding potential) at baseline (PDE10A)
Cc1cnc(COc2ccc(-c3nn(CCF)cc3-c3ccncc3)cc2)c(C)c1C (as salt: succinate) [Compound B28, 2-[[4-[1-(2-fluoroethyl)-4-(4-pyridinyl)-1H-pyrazol-3-yl]phenoxy]methyl]-3,4,5-trimethyl-pyridine.succinate] | 197.08 | – | –
COc1ccc(COc2ccc(-c3nn(CC(F)(F)F)cc3-c3ccncc3)cc2)nc1 [Compound B5, 5-methoxy-2-[[4-[4-(4-pyridinyl)-1-(2,2,2-trifluoroethyl)-1H-pyrazol-3-yl]phenoxy]methyl]-pyridine] | 136.3 | 5.13 | –
COc1cccnc1COc1ccc(-c2nn(CC(F)(F)F)cc2-c2ccncc2)cc1 [Compound B9, 3-methoxy-2-[[4-[4-(4-pyridinyl)-1-(2,2,2-trifluoroethyl)-1H-pyrazol-3-yl]phenoxy]methyl]-pyridine] | 147 | 5.13 | –
FCCCn1cc(-c2ccncc2)c(-c2ccc(OCc3ccc(OCCF)cn3)cc2)n1 [Compound B15, 5-(2-fluoroethoxy)-2-[[4-[1-(3-fluoropropyl)-4-(4-pyridinyl)-1H-pyrazol-3-yl]phenoxy]methyl]-pyridine] | 206.8 | 251 | –
FCCOc1ccc(COc2ccc(-c3nn(CCF)cc3-c3ccncc3)cc2)nc1 [Compound B19, 5-(2-fluoroethoxy)-2-[[4-[1-(2-fluoroethyl)-4-(4-pyridinyl)-1H-pyrazol-3-yl]phenoxy]methyl]-pyridine] | 212.7 | 100 | –
FCCn1cc(-c2ccncc2)c(-c2ccc(OCc3ccc(C(F)(F)F)cn3)cc2)n1 [Compound B22, 2-[[4-[1-(2-fluoroethyl)-4-(4-pyridinyl)-1H-pyrazol-3-yl]phenoxy]methyl]-5-(trifluoromethyl)-pyridine] | 133.23 | 91.2 | –
N#Cc1cccc(COc2ccc(-c3nn(CCF)cc3-c3ccncc3)cc2)n1 [Compound B26, 6-[[4-[1-(2-fluoroethyl)-4-(4-pyridinyl)-1H-pyrazol-3-yl]phenoxy]methyl]-2-pyridinecarbonitrile] | 148.7 | 33.1 | –
Cc1cnc(COc2ccc(-c3nn(CC[18F])cc3-c3ccncc3)cc2)c(C)c1 [[^18F]B-3] | – | – | 4.1

Now from value to compound:

melting point [°C] | IC50 [1] [nM] | BP (binding potential) at baseline (PDE10A) | Compound
113.25 | – | – | COc1cccc(COc2ccc(-c3nn(CCF)cc3-c3ccncc3)cc2)n1 (as salt: succinate) [Compound B24, 2-[[4-[1-(2-fluoroethyl)-4-(4-pyridinyl)-1H-pyrazol-3-yl]phenoxy]methyl]-6-methoxy-pyridine.succinate]
119.65 | – | – | CCOc1cccc(COc2ccc(-c3nn(CCF)cc3-c3ccncc3)cc2)n1 (as salt: succinate) [Compound B25, 2-ethoxy-6-[[4-[1-(2-fluoroethyl)-4-(4-pyridinyl)-1H-pyrazol-3-yl]phenoxy]methyl]-pyridine.succinate]
117.52 | 3.31 | – | COc1ccc(COc2ccc(-c3nn(CCF)cc3-c3ccncc3)cc2)nc1 [Compound B4, 2-[[4-[1-(2-fluoroethyl)-4-(4-pyridinyl)-1H-pyrazol-3-yl]phenoxy]methyl]-5-methoxy-pyridine]
165.9 | 13.2 | – | COc1cccnc1COc1ccc(-c2nn(CCCF)cc2-c2ccncc2)cc1 [Compound B12, 2-[[4-[1-(3-fluoropropyl)-4-(4-pyridinyl)-1H-pyrazol-3-yl]phenoxy]methyl]-3-methoxy-pyridine]
125.8 | 9.55 | – | FCCn1cc(-c2ccncc2)c(-c2ccc(OCc3ccc(Br)cn3)cc2)n1 [Compound B20, 5-bromo-2-[[4-[1-(2-fluoroethyl)-4-(4-pyridinyl)-1H-pyrazol-3-yl]phenoxy]methyl]-pyridine]
119.2 | 28.2 | – | COc1ccc(Br)c(COc2ccc(-c3nn(CCF)cc3-c3ccncc3)cc2)n1 [Compound B27, 3-bromo-2-[[4-[1-(2-fluoroethyl)-4-(4-pyridinyl)-1H-pyrazol-3-yl]phenoxy]methyl]-6-methoxy-pyridine]
